These results are taken from patent US8318719B2, “Inhibitors of Bruton's tyrosine kinase” (Roche Palo Alto LLC, priority 2009, dated 2012).

For orientation: IC50 means the concentration that gives 50% inhibition.

This assay deals with B cell receptor-mediated activation of B cells in human blood. In words: Inhibition of B cell activation in whole blood measured by CD69 expression. Conditions: anti-IgM stimulation 20 h, concentration decreasing by 50% the percentage of CD69-positive cells that are also CD20-positive. In kind it is cell-based. The procedure:
Inhibition of B Cell Activation in Whole Blood Measured by CD69 Expression
A procedure to test the ability of Btk inhibitors to suppress B cell receptor-mediated activation of B cells in human blood is as follows:
Human whole blood (HWB) is obtained from healthy volunteers, with the following restrictions: 24 hr drug-free, non-smokers. Blood is collected by venipuncture into Vacutainer tubes anticoagulated with sodium heparin. Test compounds are diluted to ten times the desired starting drug concentration in PBS (20×), followed by three-fold serial dilutions in 10% DMSO in PBS to produce a nine point dose-response curve. 5.5 μl of each compound dilution is added in duplicate to a 2 mL 96-well V bottom plate (Analytical Sales and Services, #59623-23); 5.5 μl of 10% DMSO in PBS is added to control and no-stimulus wells. HWB ([…] is added to each well, and after mixing the plates are incubated at 37 C, 5% CO2, 100% humidity for 30 minutes. Goat F(ab′)2 anti-human IgM (Southern Biotech, #2022-14) (10 μl of a 500 μ/mL solution, 50 μg/mL final concentration) is added to each well (except the no-stimulus wells) with mixing and the plates are incubated for an additional 20 hours. At the end of the 20 hour incubation, samples are incubated with florescent-probe-labeled anti-bodies (15 ul PE Mouse anti-Human CD20, BD Pharmingen, #555623, and/or 20 ul APC Mouse anti-Human CD69, BD Pharmingen #555533) for 30 minutes, at 37 C, 5% CO2, 100% humidity. Included are induced control, unstained and single stains for compensation adjustments and initial voltage settings. Samples are then lysed with 1 mL of 1× Pharmingen Lyse Buffer (BD Pharmingen #555899), and plates are centrifuged at 1800 rpm for 5 minutes. Supernatants are removed via suction and the remaining pellets are lysed again with another 1 mL of 1× Pharmingen Lyse Buffer, and plates are spun down as before. Supernatants are aspirated and remaining pellets are washed in FACs buffer (PBS+1% FBS). After a final spin, the supernantants are removed and pellets are resuspended in 180 ul of FACs buffer. Samples are transferred to a 96 well plate suitable to be run on the HTS 96 well system on the BD LSR II flow cytometer. Using appropriate excitation and emission wavelengths for the fluorophores used, data are acquired and percent positive cell values are obtained using Cell Quest Software. Results are initially analyzed by FACS analysis software (Flow Jo). […] The IC50 values are calculated using XLfit software version 3, equation 201.
For the compound `Cn1cc(-c2cccc(N3CCNc4cc(C5CC5)ccc4C3=O)c2CO)cc(Nc2ccc(C(=O)N3CCOCC3)cn2)c1=O` [Compound I-1, 8-Cyclopropyl-4-(2-hydroxymethyl-3-{1-methyl-5-[5-(morpholine-4-carbonyl)-pyridin-2-ylamino]-6-oxo-1,6-dihydro-pyridin-3-yl}-phenyl)-1,2,3,4-tetrahydro-benzo[e][1,4]diazepin-5-one], it took 111 nM to reach half-maximal inhibition (IC50).
Under `Cn1cc(-c2cccc(N3CCNc4cc(C5CC5)ccc4C3=O)c2CO)cc(Nc2ccc(N3CCOCC3)cn2)c1=O` [Compound I-2, 8-Cyclopropyl-4-{2-hydroxymethyl-3-[1-methyl-5-(5-morpholin-4-yl-pyridin-2-ylamino)-6-oxo-1,6-dihydro-pyridin-3-yl]-phenyl}-1,2,3,4-tetrahydro-benzo[e][1,4]diazepin-5-one] stands 96 nM.
`Cn1cc(-c2cccc(N3CCNc4cc(C(C)(C)C)ccc4C3=O)c2CO)cc(Nc2ccc(C(=O)N3CCOCC3)cn2)c1=O` [Compound I-3, 8-tert-Butyl-4-(2-hydroxymethyl-3-{1-methyl-5-[5-(morpholine-4-carbonyl)-pyridin-2-ylamino]-6-oxo-1,6-dihydro-pyridin-3-yl}-phenyl)-1,2,3,4-tetrahydro-benzo[e][1,4]diazepin-5-one] gave an IC50 of 18 nM.
The compound `CN1CCN(c2ccc(Nc3cc(-c4cccc(N5CCNc6cc(C(C)(C)C)ccc6C5=O)c4CO)cn(C)c3=O)nc2)CC1` [Compound I-4, 8-tert-Butyl-4-(2-hydroxymethyl-3-{1-methyl-5-[5-(4-methyl-piperazin-1-yl)-pyridin-2-ylamino]-6-oxo-1,6-dihydro-pyridin-3-yl}-phenyl)-1,2,3,4-tetrahydro-benzo[e][1,4]diazepin-5-one] came in with an IC50 of 38 nM. This IC50 is about 2.1-fold higher than that of the compound before.
Under `Cn1cc(-c2cccc(N3CCOc4cc(C(C)(C)C)ccc4C3=O)c2CO)cc(Nc2ccc(C(=O)N3CCOCC3)cn2)c1=O` [II-1, 8-tert-Butyl-4-(2-hydroxymethyl-3-{1-methyl-5-[5-(morpholine-4-carbonyl)-pyridin-2-ylamino]-6-oxo-1,6-dihydro-pyridin-3-yl}-phenyl)-3,4-dihydro-2H-benzo[f][1,4]oxazepin-5-one] stands 16 nM; under `CN1CCN(c2ccc(Nc3cc(-c4cccc(N5CCOc6cc(C(C)(C)C)ccc6C5=O)c4CO)cn(C)c3=O)nc2)CC1` [II-2, 8-tert-Butyl-4-(2-hydroxymethyl-3-{1-methyl-5-[5-(4-methyl-piperazin-1-yl)-pyridin-2-ylamino]-6-oxo-1,6-dihydro-pyridin-3-yl}-phenyl)-3,4-dihydro-2H-benzo[f][1,4]oxazepin-5-one], 4 nM; under `CCN1CCN(c2ccc(Nc3cc(-c4cccc(N5CCOc6cc(C(C)(C)C)ccc6C5=O)c4CO)cn(C)c3=O)nc2)CC1` [II-3, 8-tert-Butyl-4-(3-{5-[5-(4-ethyl-piperazin-1-yl)-pyridin-2-ylamino]-1-methyl-6-oxo-1,6-dihydro-pyridin-3-yl}-2-hydroxymethyl-phenyl)-3,4-dihydro-2H-benzo[f][1,4]oxazepin-5-one], 8 nM.
